Consider four substances from US20110144000A1, “ANTIMICROBIAL POLYPEPTIDE” (priority 2007, published 2011).

For experiment [1], the system named is Streptococcus pyogenes (strain AP1). As to the kind of experiment: Viable count bactericidal assay. The experiment is classed as cell-based. Particulars: for antibacterial activity compared with GCP-2/CXCL6 holopeptide: fragment comparison, FIG. 1b. From the text: (§1) The GAS strain AP1 (40/58) of M1 serotype was from the World Health Organization Collaborating Centre for Reference and Research on Streptococci, Prague, Czech Republic. Streptococcus pyogenes (strain AP1) and Streptococcus Dysgalactiae, sub species equisimilis (strain G41), Staphylococcus aureus (strain 5120), Pseudomonas aeruginosa (strain 1553 initially isolated from a chronic venous ulcer) and Escherichia coli (strain 37.4) were routinely grown in Todd-Hewitt (TH) liquid medium in 5% CO2 and at 37° C. The bacterial strains were obtained from Division of Infection Medicine, Department of Clinical Sciences, Lund University, BMC B14, Tornavagen 10, SE-221 84 Lund, Sweden.
(§2) Bacteria were cultivated to mid-log phase (OD620 0.4) in Todd-Hewitt broth, washed, and diluted in incubation buffer (10 mM Tris-Hcl pH 7.4 containing 5 mM glucose). Pseudomonas aeruginosa was grown for 18 hours at 37° C. 50 μl of bacteria (1×10^6 colony forming units (cfu)/mL) were incubated together with various concentrations of peptide or buffer alone for 1 h at 37° C. In order to quantify bactericidal activity, serial dilutions of the incubation mixtures were plated on TH agar. The number of resulting cfu:s were related to bacteria incubated with buffer alone and the results expressed as % killing.
(§3) GCP-2/CXCL6 (SEQ ID NO:3) as well as parts of CXCL6, i.r., SEQ ID NO:1 and 2 being part of CXCL6 was examined for antibacterial activity against a panel of bacteria relevant during infections of dermis and mucosal surfaces. The bacteria included Gram-positive (Group A streptococci, group G streptococci, and S. aureus) and G-negative (E. coli and P. aeruginosa) bacteria (FIG. 1 a). […] To delineate what regions of the GCP-2/CXCL6 molecule that are responsible for antibacterial activity, a 50 amino acid fragment of the NH2-terminal region (GPV-50) of GCP-2/CXCL6 and a 19 amino acid fragment (APF-19) of the COOH-terminal region (a region with a putative amphiphatic alpha-helical structure), was compared with the GCP-2/CXCL6 holopeptide. Antibacterial activity was investigated against S. pyogenes and E. coli.

Experiment [2] relates to Escherichia coli (strain 37.4). Description: Viable count bactericidal assay. The experiment is classed as cell-based. Particulars: for antibacterial activity compared with GCP-2/CXCL6 holopeptide: fragment comparison, FIG. 1b.
Text: as §1, §2, §3

A further experiment has as its system bacteria. Particulars: literature (Yang et al., 2003; Cole et al., 2001); cited from earlier work.
For another experiment, the system named is Neisserria gonorrhoea. Description: Viable count bactericidal assay against N. gonorrhoeae. The experiment is classed as cell-based, Neisseria gonorrhoeae. The settings on record: mean, ±SEM. As for the experimental part: as §2
The anti-bacterial activity of the GCP-2/CXCL6 (SEQ ID NO:3) against the gram-negative bacteria Neisserria gonorrhoea was determined using the previously described experimental set-up (See Example 3).

Experiment [3] relates to Staphylococcus aureus (strain 5120). Description: Viable count bactericidal assay. The class given is cell-based. Particulars: 1 h at 37° C., at below micromolar concentrations.
Text: as §1, §2, §3

For experiment [4], the system named is Streptococcus Dysgalactiae, sub species equisimilis (strain G41). As to the kind of experiment: Viable count bactericidal assay. The class given is cell-based. Particulars: 1 h at 37° C., at below micromolar concentrations.
Text: as §1, §2, §3

In experiment [5] the test system is Pseudomonas aeruginosa (strain 1553). As to the kind of experiment: Viable count bactericidal assay. Particulars: 1 h at 37° C., at below micromolar concentrations. The class given is cell-based.
Text: as §1, §2, §3

The subject of another experiment is Enterococcus faecalis. Description: Viable count bactericidal assay against E. faecalis. The class given is cell-based. Particulars: mean, ±SEM. Here is the method: as §2
The anti-bacterial activity of the GCP-2/CXCL6 (SEQ ID NO:3) against the gram-positive, facultatively anaerobic bacteria Enterococcus faecalis was determined using the previously described experimental set-up (See Example 3).

[6] abbreviates: viable count, 1 h at 37° C., at below micromolar concentrations.

As to “APFLKKVIQKILDSGNKKN (CXCL6 peptide) [APF-19, 19 amino acid fragment of the COOH-terminal region of GCP-2/CXCL6]”, the “antibacterial activity compared with GCP-2/CXCL6 holopeptide” value in experiment [1] and in experiment [2] was “less antibacterial than the holopeptide” each time.
Take “CXCL5: related ELR-positive CXC chemokine, closest sequence homology to CXCL6 [reference compound]”: the activity against bacteria result in the experiment on bacteria is “no activity against bacteria”.
With “GCP-2/CXCL6: Recombinant human chemokine GCP-2/CXCL6 (SEQ ID NO:3) from PeproTech”, the MBC50 with Neisserria gonorrhoea is 0.3 ± 0.1 μM (mean, ±SEM); in the experiment on Enterococcus faecalis it was 0.46 ± 0.03 μM (mean, ±SEM). The MBC90 came out at 0.8 ± 0.1 µM with Neisserria gonorrhoea and 0.90 ± 0.00 µM in the experiment on Enterococcus faecalis. Also, the bactericidal effect result in experiment [1] (setting [6]), in experiment [2] (setting [6]), in experiment [3], in experiment [4] and in experiment [5] was “bactericidal effect” each time. In addition, the activity against bacteria entry with bacteria is listed as “no activity”.
With “GPVSAVLTELRCTCLRVTLRVNPKTIGKLQVFPAGPQCSKVEVVASLKNG (CXCL6 peptide) [GPV-50, 50 amino acid fragment of the NH2-terminal region of GCP-2/CXCL6]”, the “antibacterial activity compared with GCP-2/CXCL6 holopeptide” value in experiment [1] and in experiment [2] was “higher antibacterial activity than APF-19” each time.
